Experimental findings from ChEMBL document CHEMBL1143788, “Trifunctional norrisolide probes for the study of Golgi vesiculation” (2007) are described below.

Active and inactive are the calls of the source. No cut-off for these calls is given here.

Test [1] has as its system NRK. As to the kind of experiment: Effect on Golgi fragmentation in NRK cells for 60 mins. Type of test: functional, Rattus norvegicus.
The subject of test [2] is NRK. As to the kind of experiment: Effect on Golgi fragmentation in NRK cells at 30 uM for 60 mins. Type of test: functional, Rattus norvegicus.

`CC1(C)CCC[C@]2(C)[C@@H](OC(=O)c3ccc(OCCCNC(=O)CCCC[C@@H]4SC[C@@H]5NC(=O)N[C@@H]54)cc3OCC3CO3)CC[C@@H]12` (stereo not given in full) had an Activity in the test on NRK [1] of less than 10%.
Consider `CC1(C)CCC[C@]2(C)[C@@H](OC(=O)c3ccc(N=[N+]=[N-])cc3OCCCNC(=O)CCCC[C@@H]3SC[C@@H]4NC(=O)N[C@@H]43)CC[C@@H]12`, for which, in the test with NRK [2], the Activity is listed as 50%.
As to `CC1(C)CCC[C@]2(C)[C@@H](OC(=O)c3ccc(OCC4CO4)cc3OCC(=O)NCCOCCOCCNC(=O)CCCC[C@@H]3SC[C@@H]4NC(=O)N[C@@H]43)CC[C@@H]12` (stereo not given in full), the outcome in the test with NRK [1] (Rattus norvegicus) was Active.
Regarding `COC(=O)c1ccc(N=[N+]=[N-])cc1OCCCNC(=O)CCCC[C@@H]1SC[C@@H]2NC(=O)N[C@@H]21`, the result with NRK [2] (Rattus norvegicus) was inactive.
With `CC1(C)CCC[C@]2(C)[C@@H](OC(=O)c3cc(I)c(OCC4CO4)cc3OCC3CO3)CC[C@@H]12` (stereo not given in full), the Activity in the test on NRK [1] was greater than 80%.
